Laboratory results taken from ChEMBL document CHEMBL3632486, “Interaction of carbonic anhydrase isozymes I, II, and IX with some pyridine and phenol hydrazinecarbothioamide derivatives” (Bioorg Med Chem Lett, 2015).

What was measured:
[1] = target: T1, Carbonic anhydrase 9 (Homo sapiens, UniProt Q16790)
Description: Inhibition of human carbonic anhydrase 9 incubated for 15 mins prior to testing by stopped flow CO2 hydration assay

[2] = target: Carbonic anhydrase 2 (Homo sapiens, UniProt P00918); test: Inhibition of human carbonic anhydrase 2 incubated for 15 mins prior to testing by stopped flow CO2 hydration assay
[3] = target: T1, Carbonic anhydrase 9; test: Activation of human carbonic anhydrase 9 incubated for 15 mins prior to testing by stopped flow CO2 hydration assay
[4] = target: Carbonic anhydrase 1 (Homo sapiens, UniProt P00915); test: Inhibition of human carbonic anhydrase 1 incubated for 15 mins prior to testing by stopped flow CO2 hydration assay
Sequence of Carbonic anhydrase 1 (P00915 whole entry): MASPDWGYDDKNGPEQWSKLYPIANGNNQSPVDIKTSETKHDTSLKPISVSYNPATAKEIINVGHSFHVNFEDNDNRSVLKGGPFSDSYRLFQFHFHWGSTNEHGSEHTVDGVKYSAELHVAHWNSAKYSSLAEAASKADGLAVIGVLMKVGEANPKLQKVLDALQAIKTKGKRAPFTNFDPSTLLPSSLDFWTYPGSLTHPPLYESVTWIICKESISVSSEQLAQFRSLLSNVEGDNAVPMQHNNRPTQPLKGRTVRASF

Row | Structure (SMILES) | Ki [1] [nM] | Ki [2] [nM] | Activity [3] [µM] | Ki [4] [nM]
1 | CCNC(=S)NNC(=O)c1ccccc1O | 878 | > 10000 | – | –
2 | O=C(NNC(=S)Nc1ccccc1)c1ccncc1 | 317 | – | 1.42 | 34.1
3 | NC(=S)NNC(=O)c1ccccc1O | 1010 | > 10000 | – | –
4 | C=CCNC(=S)NNC(=O)c1ccncc1 | 970 | – | 12.3 | 871
5 | Cc1ccc(NC(=S)NNC(=O)c2ccccc2O)cc1 | – | > 10000 | – | –
6 | O=C(NNC(=S)NCc1ccccc1)c1ccncc1 | 964 | – | 0.81 | –
7 | O=C(NNC(=S)NCc1ccccc1)c1ccccc1O | 980 | > 10000 | – | –
8 | Cc1ccc(NC(=S)NNC(=O)c2ccncc2)cc1 | 1120 | – | 2.57 | –
9 | CCN=C(S)NNC(=O)c1ccncc1 | 884 | – | 12.5 | 96.9
10 | C=CCNC(=S)NNC(=O)c1ccccc1O | 760 | > 10000 | – | –
11 | O=C(NNC(=S)Nc1ccccc1)c1ccccc1O | 1220 | > 10000 | – | –
12 | NC(=S)NNC(=O)c1ccncc1 | – | – | 3.61 | –
